Experimental findings from patent US5808100A, “Chromene compounds and photochromic materials” (Tokuyama Corporation, priority 1995, dated 1998) are described below.

Each structure is given as a SMILES string.

Data set [1] is described as follows: Durability T1/2 by xenon fadometer FAC-25AX-HC. It is filed as physicochemical. Conditions: in polymer. Here is the method:
(§1) 0.05 Parts of the chromene compound obtained in Example 1 was added to 70 parts of a tetraethylene glycol dimethacrylate, 15 parts of a triethylene glycol dimethacrylate, 10 parts of a glycidyl methacrylate and 5 parts of a 2-hydroethyl methacrylate, and was mixed to a sufficient degree. The mixture solution was poured into a mold constituted by a glass plate and a gasket made from an ethylene/vinyl acetate copolymer and then polymerized. The polymerization was conducted by using an air furnace while gradually raising the temperature up to 30° C. to 90° C. over a period of 18 hours, the temperature being maintained at 90° C. for two hours. After the polymerization, the polymer was taken out from the glass mold.
(§2) Color fading rate [t1/2 ]: Time required by the polymer irradiated for 120 seconds until the absorbancy decreases down to one-half of [ε(120)-ε(0)]. Durability [T1/2 ]: Time required until the absorbency at the maximum absorption wavelength decreases down to 1/2 of the initial absorbency as measured by using a xenon fadometer FAC-25AX-HC manufactured by Suga Shikenki Co.
(§3) The photochromic polymers were obtained in the same manner as described above but using the compounds obtained in Examples 2 to 33 as chromene compounds. For the purpose of comparison, properties of the compounds represented by the following formulas (A), (B), (D) and (E) were also shown in Table 3. [drawing 110]

The nature of data set [2]: Photochromic properties of polymer (2 mm thick) containing the chromene compound, xenon lamp irradiation 120 seconds. Set-up: key to Color density ε(120)-ε(0): absorbance at λmax after 120 s irradiation minus before, ε(120)-ε(0). The class given is physicochemical. Conditions: for Color density ε(120)-ε(0): 120 seconds irradiation, 20° C.±1° C.; for Color density ε(120)-ε(0) / ε(0): absorbancy of the polymer not irradiated (initial color): at λmax; for Color fading rate t1/2: time until absorbancy decreases to one-half of [ε(120)-ε(0)]: after 120 seconds irradiation; for Maximum absorption wavelength λMax (developed color tone): polymer after developing color. Here is the method:
as §1
The obtained polymer (2 mm thick) was irradiated with light from a xenon lamp L-2480 (300 W) SHL-100 manufactured by Hamamatsu Photonics Co. through an Aero Mass filter (manufactured by Corning Co.) for 120 seconds under the conditions of 20° C.±1° C., beam intensities of 365 nm=2.4 mW/cm^2 and […]=24 μW/cm^2 on the polymer surface to develop color and to measure photochromic properties. The photochromic properties were expressed as described below.
Maximum absorption wavelength (λmax): λmax of the polymer after it has developed color was found by using a spectrophotometer (instantaneous multi-channel photodetector MCPD1000) manufactured by Otsuka Denshi Kogyo Co.
ε(120): Absorbancy of the polymer using light of a maximum absorption wavelength after it was irradiated under the above-mentioned conditions for 120 seconds.
ε(0): Absorbancy of the polymer that has not been irradiated using light of a wavelength same as the maximum absorption wavelength of light with which the polymer was irradiated.
ε(120)-ε(0): Color density
as §2, §3

For `Fc1c(C2(c3ccsc3)C=Cc3c(ccc4ccccc34)O2)ccc2ccccc12` (centres unmarked) [Compound 30], the “Durability T1/2: time until absorbancy at maximum absorption wavelength decreases to 1/2 of the initial” value in data set [1] is 495 h. In data set [2], the “Color density ε(120)-ε(0)” value turned out to be 1.18, the “Color fading rate t1/2: time until absorbancy decreases to one-half of [ε(120)-ε(0)]” value is 1.17 min, the “ε(0): absorbancy of the polymer not irradiated (initial color)” value was 0.04 and the “Maximum absorption wavelength λMax (developed color tone)” value (“Maximum absorption wavelength λMax” below) came to 450 nm.
For `COc1ccc2c3c(ccc2c1)OC(c1ccc2ccccc2c1)(c1cnco1)C=C3` (centres unmarked) [Compound 11] the same measures were 490 h, 1.36, 1.23 min, 0.05 and 476 nm.
The like results for `Fc1sccc1C1(c2ccc3ccccc3c2)C=Cc2c(ccc3ccccc23)O1` (centres unmarked) [Compound 7] were, in that order, 500 h, 1.30, 1.03 min, 0.05 and 456 nm.
Regarding `COc1ccc2c3c(ccc2c1)OC(c1cccs1)(c1cccc2ccccc12)C=C3` (centres unmarked) [Compound 17], the “Durability T1/2: time until absorbancy at maximum absorption wavelength decreases to 1/2 of the initial” value in data set [1] was found to be 470 h. In addition, in data set [2], the “Color density ε(120)-ε(0)” value was 1.23, the “Color fading rate t1/2: time until absorbancy decreases to one-half of [ε(120)-ε(0)]” value worked out at 1.4 min, the “ε(0): absorbancy of the polymer not irradiated (initial color)” value was determined as 0.05 and the “Maximum absorption wavelength λMax” value was found to be 502 nm.
The like results for `C1=CC(c2ccco2)(c2csc3ccccc23)Oc2ccc3ccccc3c21` (centres unmarked) [Compound 26] were, in that order, 510 h, 1.05, 0.833 min, 0.06 and 460 nm.
For `N#Cc1cc(Cl)c(C2(c3ccoc3)C=Cc3c(ccc4ccccc34)O2)s1` (centres unmarked) [Compound 24] the same measures were 480 h, 1.12, 1.08 min, 0.05 and 458 nm.
The like results for `CCOc1c(C2(c3ccco3)C=Cc3c(ccc4cc(OC)c(C(C)=O)cc34)O2)ccc2ccccc12` (centres unmarked) [Compound 12] were, in that order, 450 h, 1.34, 1.1 min, 0.08 and 510 nm.
For `C1=CC(c2ccc3ccccc3c2)(c2nccs2)Oc2ccc3ccccc3c21` (centres unmarked) [Compound 16], the “Durability T1/2: time until absorbancy at maximum absorption wavelength decreases to 1/2 of the initial” value in data set [1] turned out to be 485 h. In addition, in data set [2], the “Color density ε(120)-ε(0)” value amounted to 1.09, the “Color fading rate t1/2: time until absorbancy decreases to one-half of [ε(120)-ε(0)]” value amounted to 0.7 min, the “ε(0): absorbancy of the polymer not irradiated (initial color)” value stood at 0.06 and the “Maximum absorption wavelength λMax” value was 466 nm.
The like results for `C1=CC(c2ccoc2)(c2ccco2)Oc2ccc3ccccc3c21` (centres unmarked) [Compound 5] were, in that order, 540 h, 1.11, 0.833 min, 0.07 and 466 nm.
For `CC(C)(C)Oc1ccc2ccc3c(c2c1)C=CC(c1cccs1)(c1ccc2ccccc2c1Cl)O3` (centres unmarked) [Compound 21] the same measures were 470 h, 1.35, 1.17 min, 0.05 and 450 nm.
The like results for `COc1ccc2c3c(ccc2c1)OC(c1ccccc1)(c1ccccc1)C=C3` [B, reference compound] were, in that order, 240 h, 0.74, 1.5 min, 0.04 and 472 nm.
On to `C1=CC(c2ccsc2)(c2cc3ccccc3o2)Oc2cc(N3CCCCC3)c3ccccc3c21` (centres unmarked) [Compound 10], for which the “Durability T1/2: time until absorbancy at maximum absorption wavelength decreases to 1/2 of the initial” value in data set [1] is 510 h. In data set [2], the “Color density ε(120)-ε(0)” value is reported as 1.33, the “Color fading rate t1/2: time until absorbancy decreases to one-half of [ε(120)-ε(0)]” value amounted to 1.37 min, the “ε(0): absorbancy of the polymer not irradiated (initial color)” value is listed as 0.10 and the “Maximum absorption wavelength λMax” value was found to be 460 nm.
The like results for `Fc1cc2ccccc2cc1C1(c2cccs2)C=Cc2c(ccc3ccccc23)O1` (centres unmarked) [Compound 33] were, in that order, 495 h, 1.11, 1.13 min, 0.04 and 460 nm.
The like results for `Fc1occc1C1(c2ccc3ccccc3c2)C=Cc2c(ccc3ccccc23)O1` (centres unmarked) [Compound 32] were, in that order, 490 h, 1.28, 1.08 min, 0.05 and 450 nm.
For `C1=CC(c2ncco2)(c2csc3ccccc23)Oc2ccc3cc(Cc4ccccc4)ccc3c21` (centres unmarked) [Compound 13] the same measures were 490 h, 1.02, 1.03 min, 0.07 and 480 nm.
As to `C1=CC(c2ccccc2)(c2cccs2)Oc2ccc3ccccc3c21` (centres unmarked) [D, reference compound], the “Durability T1/2: time until absorbancy at maximum absorption wavelength decreases to 1/2 of the initial” value in data set [1] is 490 h. Besides, in data set [2], the “Color density ε(120)-ε(0)” value came to 0.51, the “Color fading rate t1/2: time until absorbancy decreases to one-half of [ε(120)-ε(0)]” value was found to be 0.7 min, the “ε(0): absorbancy of the polymer not irradiated (initial color)” value worked out at 0.04 and the “Maximum absorption wavelength λMax” value was determined as 466 nm.
The like results for `C1=CC(c2ccc3ccccc3c2)(c2ccco2)Oc2ccc3ccccc3c21` (centres unmarked) [Compound 4] were, in that order, 490 h, 1.10, 0.983 min, 0.07 and 486 nm.
The like results for `C1=CC(c2ccsc2)(c2ccco2)Oc2ccc3ccccc3c21` (centres unmarked) [Compound 6] were, in that order, 520 h, 1.02, 0.75 min, 0.07 and 464 nm.
The like results for `CC(=O)Oc1ccc2c3c(ccc2c1)OC(c1ccc(C)s1)(c1cccc2ccccc12)C=C3` (centres unmarked) [Compound 20] were, in that order, 480 h, 1.42, 1.48 min, 0.05 and 506 nm.
